Source: article PMC12477777, “Human exposure to green spaces and monoterpenes: discovery and use of α-pinene metabolites as biomarkers” (Environment international, 2025)

Columns and labels:
[1] = Relative quantification of urinary aPM (UPLC-QTOF-MS, creatinine-normalized) after controlled α-pinene inhalation; type: in vivo, human; details: for Proportion (observed) after α-pinene inhalation: share of total response of 22 aPM, averaged over post-exposure samples
Procedure: (§1) Briefly, for controlled inhalation experiments, eight healthy volunteers were exposed to α-pinene in a custom-built exposure chamber via inhalation from a 15 ml conical tube, containing approximately 100 μl α-pinene, for a duration of 10 min. Urine samples were collected before exposure (0 h) and 0.5, 1, 2, 3, and 4 h after exposure. […] Urine samples were collected both before (0 h) or 4 h after exposure. After collection, the urine samples were centrifuged and stored at −80 °C before analysis. […] Demographic information, including sex, age and race, can be found in Table S1.
(§2) Briefly, after 1:10 dilution, urine samples were separated using an Acquity I-Class UPLC system with an Acquity Premier CSH C18 UPLC column (Waters, MA) with a gradient comprising 0.1 % formic acid in water as the solvent A and 0.1 % formic acid in acetonitrile as the solvent B. Mass Spectrometry Elevated Energy (MS^E) data were collected using a Waters Synapt XS MS (Waters, MA) with an ESI ion source operated in the negative mode. Subsequent analyses of raw files were performed using UNIFI 1.9 and Progenesis QI 3.0 (both from Waters, MA). To validate LC-MS performance, one quality control (QC) sample, prepared by pooling equal amount of each urine sample, was injected after every ten urine sample injections.
(§3) Relative quantification of aPM was performed based on the peak responses normalized to urinary creatinine levels. Urinary creatinine levels were measured using an Ace Axcel Clinical Chemistry System with ACE Creatinine Reagent from Alfa Wassermann (West Caldwell, NJ). Statistical analyses, including ANOVA and Student’s t-tests, were conducted using SAS 9.4 (SAS Institute, NC) to explore differences in aPM across various time points. […] A threshold for statistical significance was defined as p < 0.05.

[2] = Kinetic modeling of urinary aPM with a pseudo one-compartment nonlinear mixed-effects model after α-pinene inhalation; type: in vivo, human; details: for F (%), fraction of metabolite generated from absorbed α-pinene: human urine after 10 min α-pinene inhalation, F normalized to the sum of 22 detected metabolites
From the text: In this equation, i represents the participant index, j the urine sample index, C the creatinine-normalized peak response, and t the sample collection time ( h).Ka denotes the first-order generation constant ( h^−1 ), and Ke denotes the first-order elimination rate constant h^−1 . F indicates the fraction of specific aPM relative to absorbed α-pinene. The variables D and V refer to the absorbed α-pinene amount and the distribution volume, respectively. Because input data were derived from relative quantification, absolute values of D , V , and F were not available. For simplicity, D and V were fixed at 100 and 1, respectively, and F was normalized relative to the sum of all detected aPM. The error term ε accounts for residual variation.

[3] = aPM in mouse urine after i.p. injection of (+)-α-pinene or (−)-α-pinene; type: in vivo, mice (C57BL/6); details: for (1R)-(+)-α-Pinene (Average), proportion of aPM in mouse urine / (1S)-(−)-α-Pinene (Average), proportion of aPM in mouse urine: 50 mg/kg; for R/(R+S): mouse urine, enantiomer specificity; for Detection in mouse urine: after exposure to either α-pinene enantiomer
Procedure: Mouse urine was collected after exposures to either (+) or (−) α-pinene to distinguish between metabolites of different enantiomers of α-pinene. Adult male mice (C57BL/6) were intraperitoneally administered with 50 mg/kg body weight of (+)-α-pinene or (−)-α-pinene dissolved in 100 μl sterile saline with 1 % Tween 80.

[4] = Urinary aPM after 4 h greenness (forest) exposure; type: in vivo, human; design: Maximum response: unit not given here; details: for Frequency of occurrence / Maximum response: human urine, greenness exposure; for Proportion (observed) after greenness exposure: share of total aPM response
Procedure: as §1, §2, §3

[5] = human urine after α-pinene inhalation
[6] = human urine after α-pinene inhalation, pseudo one-compartment model
[7] = mouse urine collected overnight, 50 mg/kg i.p. (+)-α-pinene
[8] = mouse urine collected overnight, 50 mg/kg i.p. (−)-α-pinene
[9] = male, C57BL/6, mouse, in vivo, ip

| Compound | Frequency of occurrence (percentage of samples with analyte detected) [1, 5] [%] | Observed Tmax [1, 5] [min] | Proportion (observed) after α-pinene inhalation [1] [%] | F (%), fraction of metabolite generated from absorbed α-pinene [2] [%] | Elimination t1/2 [2, 6] [min] | Ka, first-order generation constant [2, 6] [h⁻¹] | Ke, first-order elimination rate constant [2, 6] [h⁻¹] | (1R)-(+)-α-Pinene (Average), proportion of aPM in mouse urine [3, 7] [%] | (1S)-(−)-α-Pinene (Average), proportion of aPM in mouse urine [3, 8] [%] | R/(R+S) [3] [%] | Frequency of occurrence [4] [%] | Maximum response [4] | Proportion (observed) after greenness exposure [4] [%] | Maximum response (highest peak response across all urine samples) [1, 5] | Detection in mouse urine [3] | Tmax ([1]; inhaled or intranasal, human urine after α-pinene inhalation, read-out: Observed Tmax) [min] | half-life ([2]; inhaled or intranasal, human urine after α-pinene inhalation, pseudo one-compartment model, read-out: Elimination t1/2 (converted)) [min] | k el ([2]; inhaled or intranasal, human urine after α-pinene inhalation, pseudo one-compartment model, read-out: Ke, first-order elimination rate constant (converted)) [s⁻¹] | (1R)-(+)-α-Pinene (Average), proportion of aPM in mouse urine [3, 9] [%] | (1S)-(−)-α-Pinene (Average), proportion of aPM in mouse urine [3, 9] [%] |
| --- | --- | --- | --- | --- | --- | --- | --- | --- | --- | --- | --- | --- | --- | --- | --- | --- | --- | --- | --- | --- |
| CC1(C)C2CC1C(OC1OC(C(=O)O)C(O)C(O)C1O)C=C2C(=O)O (single isomer, unassigned) [aPM5e, Myrtenic acid-4-O-GlcA] | 72.9 | 60 | 0.3 | 0.38 ± 0.16 | 45.6 ± 16.8 | 0.91 ± 0.36 | 0.91 ± 0.34 | 0.0 | 0.3 | 0 | 25.0 | 93 | 1.0 | – | – | – | – | – | – | – |
| α-Pinene-O-GlcA [aPM2a] | – | 30 | – | 0.51 ± 0.12 | 33.6 ± 4.8 | – | 1.23 ± 0.17 | – | – | – | – | – | 0.9 | – | – | – | – | – | – | – |
| CC1(C)C2CCC(C(=O)OC3OC(C(=O)O)C(O)C(O)C3O)C1C2 (single isomer, unassigned) [aPM4b, Dihydromyrtenic acid-GlcA] | 81.3 | 60 | 1.2 | 1.47 ± 0.63 | 47.4 ± 15.6 | 1.34 ± 0.47 | 0.87 ± 0.28 | 0.0 | 4.2 | 0.0 | 0.0 | – | – | 14109 | – | – | – | – | – | – |
| CC1(C)C2CCC(C(=O)OC3OC(C(=O)O)C(O)C(O)C3O)C1C2 (single isomer, unassigned) [aPM4e, Dihydromyrtenic acid-GlcA] | 95.8 | 60 | – | 18.14 ± 6.52 | 59.4 ± 19.8 | 1.26 ± 0.50 | 0.70 ± 0.24 | 0.1 | 0.2 | 24.1 | 93.8 | 27114 | 67.8 | 241782 | present in murine samples | – | – | – | – | – |
| CC1(C)C2CC1C(OC1OC(C(=O)O)C(O)C(O)C1O)C=C2C(=O)O (single isomer, unassigned) [aPM5b, Myrtenic acid-4-O-GlcA] | 91.7 | 60 | 1.6 | 1.46 ± 0.57 | 52.2 ± 20.4 | 1.74 ± 0.84 | 0.80 ± 0.31 | 0.0 | 0.0 | – | 6.3 | 89 | 0.0 | 22121 | – | – | – | – | – | – |
| Pinanetriol-GlcA [aPM7a] | 89.6 | 60 | 1.3 | 1.56 ± 0.66 | 44.4 ± 13.2 | 1.46 ± 0.48 | 0.93 ± 0.27 | 21.2 | 3.8 | 84.7 | 0.0 | – | – | 20611 | – | – | – | – | – | – |
| CC1(C)C2CC=C(COC3OC(C(=O)O)C(O)C(O)C3O)C1C2 (stereo not shown) [aPM2c, myrtenol glucuronide] | 95.8 | – | 4.9 | 6.99 ± 2.12 | – | 3.02 ± 0.88 | – | – | – | – | 31.3 | 1435 | 0.5 | 154854 | – | 30 | 30 ± 5.4 | 0.000386 | 21.8 | 30.3 |
| CC1(C)C2CC1C(OC1OC(C(=O)O)C(O)C(O)C1O)C=C2C(=O)O (single isomer, unassigned) [aPM5g, Myrtenic acid-4-O-GlcA] | 100.0 | 60 | 4.4 | 5.10 ± 2.25 | 41.4 ± 17.4 | 1.62 ± 0.81 | 1.01 ± 0.43 | 0.0 | 0.0 | – | 25.0 | 98 | 0.4 | 77327 | – | – | – | – | – | – |
| CC1(C)C2CCC(C(=O)OC3OC(C(=O)O)C(O)C(O)C3O)C1C2 (single isomer, unassigned) [aPM4d, Dihydromyrtenic acid-GlcA] | 97.9 | 60 | – | 13.03 ± 5.57 | 60.6 ± 24 | 0.73 ± 0.29 | 0.68 ± 0.27 | 0.0 | 0.2 | 0.0 | 68.8 | 7375 | 9.4 | 183468 | present in murine samples | – | – | – | – | – |
| CC1(C)C2CC1C(OC1OC(C(=O)O)C(O)C(O)C1O)C=C2C(=O)O (single isomer, unassigned) [aPM5d, Myrtenic acid-4-O-GlcA] | 81.3 | 60 | 0.4 | 0.27 ± 0.09 | 78.6 ± 27.6 | 1.33 ± 0.51 | 0.53 ± 0.19 | 0.2 | 0.0 | 100 | 0.0 | – | – | 5115 | – | – | – | – | – | – |
| CC1(C)C2CCC(C(=O)OC3OC(C(=O)O)C(O)C(O)C3O)C1C2 (single isomer, unassigned) [aPM4c, Dihydromyrtenic acid-GlcA] | 89.6 | 60 | 0.5 | 0.26 ± 0.08 | 90.6 ± 32.4 | 1.65 ± 0.67 | 0.46 ± 0.16 | 0.0 | 0.1 | 0.0 | 0.0 | – | – | 5156 | – | – | – | – | – | – |
